Key:
[1] = target: T1, GPR17 (Homo sapiens, UniProt Q13304); assay: Calcium mobilization functional assay (GPR17 Ca2+ assay); format: cell-based; design: host or cells: Flp-In T-REx CHO; details: CHO hGPR17 cells, inhibition of 50 nM MDL29,951, Calcium 5 dye, FLIPR; read-out: Ca2+ assay pIC50 (converted)
Summary of the method: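 pIC50 values were fitted with a 4-parameter logistic curve. They reflect test-compound inhibition of cytosolic Ca2+ release evoked by 50 nM MDL29,951, tracked as Calcium 5 fluorescence at room temperature. Cells were CHO Flp-In T-REx stably carrying human GPR17, induced with doxycycline 1 μg/mL for 16-20 h.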

[2] = target: T1, GPR17; assay: cAMP accumulation functional assay (HTRF, Schild analysis); format: cell-based; design: host or cells: Flp-In T-REx CHO; details: CHO hGPR17 cells, Schild analysis vs MDL29,951, 5 μM forskolin, read-out: cAMP assay pA2 (converted)
Summary of the method: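 Antagonist affinity (pA2) came from Schild plots of dose ratios, based on MDL29,951 concentration-response curves fitted by 4-parameter logistic. The read-out was HTRF cAMP in 5,000 doxycycline-induced CHO hGPR17 cells per well, with 30 min compound preincubation and 60 min stimulation, at room temperature in pH 7.4 buffer.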

T1 sequence (Q13304 whole entry): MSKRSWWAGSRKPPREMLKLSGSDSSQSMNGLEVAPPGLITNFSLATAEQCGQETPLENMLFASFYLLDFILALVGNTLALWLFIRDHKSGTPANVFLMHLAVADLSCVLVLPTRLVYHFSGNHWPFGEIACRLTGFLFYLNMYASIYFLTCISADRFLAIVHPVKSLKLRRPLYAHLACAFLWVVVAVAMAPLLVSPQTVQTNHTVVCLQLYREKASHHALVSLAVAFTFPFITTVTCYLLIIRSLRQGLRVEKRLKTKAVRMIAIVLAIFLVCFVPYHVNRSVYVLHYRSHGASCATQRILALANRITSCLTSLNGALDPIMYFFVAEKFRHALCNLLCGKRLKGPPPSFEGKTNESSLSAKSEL

Compound | IC50 [1] [nM] | Kb [2] [nM]
COc1c(Cl)ccc2c(S(=O)(=O)Nc3cc(F)c(Cl)cc3F)c[nH]c12 [Compound I-244, 6-chloro-N-(4-chloro-2,5-difluorophenyl)-7-methoxy-1H-indole-3-sulfonamide] | 3.16 to 31.6 | < 3.16
CS(=O)(=O)c1ccc2c(S(=O)(=O)Nc3cc(F)c(F)cc3F)c[nH]c2c1 [Compound I-239, 6-methylsulfonyl-N-(2,4,5-trifluorophenyl)-1H-indole-3-sulfonamide] | > 31.6 | > 31.6
O=S(=O)(Nc1ccc(Cl)cc1F)c1c[nH]c2nc(Cl)ccc12 [Compound I-224, 6-chloro-N-(4-chloro-2-fluorophenyl)-1H-pyrrolo[2,3-b]pyridine-3-sulfonamide] | 3.16 to 31.6 | 3.16 to 31.6
O=S(=O)(Nc1ccc2nsnc2c1)c1c[nH]c2cc(Cl)ccc12 [Compound I-147, N-(2,1,3-benzothiadiazol-5-yl)-6-chloro-1H-indole-3-sulfonamide] | 3.16 to 31.6 | 3.16 to 31.6
N#Cc1cc(F)c(NS(=O)(=O)c2c[nH]c3cc(C(F)(F)F)ccc23)cc1F [Compound I-184, N-(4-cyano-2,5-difluorophenyl)-6-(trifluoromethyl)-1H-indole-3-sulfonamide] | < 3.16 | < 3.16
O=S(=O)(Nc1ccc(F)c2nsnc12)c1c[nH]c2cc(Cl)ccc12 [Compound I-127, 6-chloro-N-(7-fluoro-2,1,3-benzothiadiazol-4-yl)-1H-indole-3-sulfonamide] | 3.16 to 31.6 | 3.16 to 31.6
COc1ccc2c(S(=O)(=O)Nc3cc(F)c(Cl)cc3F)c[nH]c2c1 [Compound I-221, N-(4-chloro-2,5-difluorophenyl)-6-methoxy-1H-indole-3-sulfonamide] | 3.16 to 31.6 | 3.16 to 31.6
N#Cc1ccc(NS(=O)(=O)c2c[nH]c3cc(-c4cccs4)ccc23)c(F)c1 [Compound I-235, N-(4-cyano-2-fluorophenyl)-6-(thiophen-2-yl)-1H-indole-3-sulfonamide] | 3.16 to 31.6 | < 3.16
O=S(=O)(Nc1ccc2nsnc2c1)c1c[nH]c2cc(Br)ccc12 [Compound I-183, N-(2,1,3-benzothiadiazol-5-yl)-6-bromo-1H-indole-3-sulfonamide] | < 3.16 | < 3.16
O=S(=O)(Nc1cc(F)c(Br)cc1F)c1coc2cc(Cl)ccc12 [Compound I-259, N-(4-bromo-2,5-difluorophenyl)-6-chloro-1-benzofuran-3-sulfonamide] | 3.16 to 31.6 | < 3.16
Cc1ccnc(NS(=O)(=O)c2c[nH]c3cc(Cl)ccc23)c1 [Compound I-59] | > 31.6 | > 31.6
O=S(=O)(Nc1ccc(I)cc1F)c1c[nH]c2nc(Cl)ccc12 [Compound I-94, 6-chloro-N-(2-fluoro-4-iodophenyl)-1H-pyrrolo[2,3-b]pyridine-3-sulfonamide] | 3.16 to 31.6 | 3.16 to 31.6
COc1nc(NS(=O)(=O)c2coc3cc(Cl)ccc23)c(F)cc1Cl [Compound I-346, 6-chloro-N-(5-chloro-3-fluoro-6-methoxypyridin-2-yl)-1-benzofuran-3-sulfonamide] | 3.16 to 31.6 | 3.16 to 31.6
COc1nc(NS(=O)(=O)c2c[nH]c3c2ccc2ccccc23)c(F)cc1Cl [Compound I-329, N-(5-chloro-3-fluoro-6-methoxypyridin-2-yl)-1H-benzo[g]indole-3-sulfonamide] | < 3.16 | < 3.16
O=C1OCc2ccc(NS(=O)(=O)c3c[nH]c4cc(Cl)ccc34)cc21 [Compound I-8, 6-chloro-N-(3-oxo-1,3-dihydro-2-benzofuran-5-yl)-1H-indole-3-sulfonamide] | > 31.6 | > 31.6
COc1nc(NS(=O)(=O)c2c[nH]c3c(F)c(Cl)c(F)cc23)c(F)cc1Cl [Compound I-340, 6-chloro-N-(5-chloro-3-fluoro-6-methoxypyridin-2-yl)-5,7-difluoro-1H-indole-3-sulfonamide] | 3.16 to 31.6 | 3.16 to 31.6
